Data on one molecule can be found in patent publication US6534523B1, “Hepatitis C inhibitor tri-peptides” (Boehringer Ingelheim (Canada) Ltd., priority 1998, dated 2003).

For the test, the target named is T1, HCV NS3 protease type 1b / NS4A cofactor peptide (Hepatitis C virus genotype 1b, UniProt P26663).
T1 construct: recombinant HCV NS3 protease (amino acid 1027 to 1206) was cloned in the pET11d bacterial expression vector; made in house; host or cells: E. coli BL21(DE3)pLysS
Description: Recombinant HCV NS3 protease/NS4A cofactor peptide radiometric assay (Example 37). The format is biochemical, HCV genotype 1b. The method, then:
Recombinant HCV NS3 Protease/NS4A Cofactor Peptide Radiometric Assay
The enzyme was cloned, expressed and prepared according to the protocol described in Example 36. The enzyme was stored at −80° C., thawed on ice and diluted just prior to use in the assay buffer containing the NS4A cofactor peptide.
The substrate used for the NS3 protease/NS4A cofactor peptide radiometric assay, DDIVPC-SMSYTW, is cleaved between the cysteine and the serine residues by the enzyme. The sequence DDIVPC-SMSYTW corresponds to the NS5A/NS5B natural cleavage site in which the cysteine residue in P2 has been substituted for a proline. The peptide substrate DDIVPC-SMSYTW and the tracer biotin-DDIVPC-SMS[^125I-Y]TW are incubated with the recombinant NS3 protease and the NS4A peptide cofactor […] (molar ratio enzyme:cofactor 1:100) in the absence or presence of inhibitors. The separation of substrate from products is performed by adding avidin-coated agarose beads to the assay mixture followed by filtration. The amount of SMS[^125I-Y]TW product found in the filtrate allows for the calculation of the percentage of substrate conversion and of the percentage of inhibition.
Tris and Tris-HCl (UltraPure) were obtained from Gibco-BRL. […]
The filtrates were counted on a Packard TopCount instrument using a ^125I-liquid protocol for 1 minute.
The % inhibition was calculated with the following equation: […]

T1 sequence (P26663 1027-1206, other chains not shown): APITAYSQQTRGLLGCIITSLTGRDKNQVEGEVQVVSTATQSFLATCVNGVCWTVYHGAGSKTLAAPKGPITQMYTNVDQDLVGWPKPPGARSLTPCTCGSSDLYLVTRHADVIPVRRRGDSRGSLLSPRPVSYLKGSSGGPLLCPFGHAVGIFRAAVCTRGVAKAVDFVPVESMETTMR

The term IC50 denotes the concentration that inhibits the measured activity by half. As to `C=C[C@@H]1C[C@]1(NC(=O)[C@@H]1C[C@@H](Oc2cc(-c3ccccc3)nc3cc(OC)ccc23)CN1C(=O)[C@@H](NC(=O)OC(C)(C)C)C(C)C)C(=O)O` [compound 601], the IC50 was determined as 50 nM.
